Measured values published in US10251894B2, “Anticonvulsant activity of steroids” (The Regents of the University of California, priority 2012, dated 2019).

What was measured:
[1] = Plasma allopregnanolone after single i.v. injection (LC-MS); assay type: in vivo, rat; conditions: rats
Experimental: FIG. 10 illustrates a Time—concentration profile for plasma allopregnanolone (5α,3α-P) after single i.v. injection in rats. Rats bearing indwelling jugular catheters received single i.v. injection of 5α,3α-P or vehicle and serial blood samples were withdrawn at 1, 2, 10,15, 30, 60 and 120 min after injection. Plasma was assayed for 5α,3α-P by LC-MS. Each point represents at least 4 animals.
(§1) The mouse 6 Hz and pentylenetetrazol seizure models were used. Solutions of 5α,3α-P were made in 6% (0.5 and 1.5 mg/ml) sulfobutylether-β-cyclodextrin sodium salt (Captisol®) in 0.9% saline. The solutions were injected i.v. or i.m. (1, 2 and 30 min or 2 and 30 min, respectively) prior to administration of the 6 Hz electrical stimulus or PTZ (80 mg/kg, i.p.). […] Anticonvulsant activity was assessed by the delay in onset of seizure signs. Allopregnanolone plasma levels in rats were determined by LC-MS.
Surgery and Blood Collection. Male rats were implanted with indwelling jugular catheters as described (Baumann, et al., J Neurosci. (1998) 18: 9069-77). Animals were allowed to recover for at least one week. Experiments were carried out while the animal resided in its home cage. Rats received i.v. injection of vehicle or 5α,3α-P and serial blood samples were withdrawn into chilled tubes at 1, 2, 10,15, 30, 60 and 120 min after i.v. injection. 5α,3α-P and D4-5α,3α-P (internal standard) were extracted with SPE method from rat's plasma. The extracted 5α,3α-P and D4-5α,3α-P were quantified with ultra-performance liquid chromatography (UPLC)/Atmospheric-pressure chemical ionization (APCI)/tandem mass spectrometry (MS/MS).

[2] = test system: 6 Hz electrical stimulus seizures; assay: 6-Hz seizure test (6-Hz electrical-stimulation, 32 mA, 3 s, model); assay type: in vivo, mouse; conditions: mice
Experimental: as §1
(§2) Animals. Male NIH Swiss mice (22-30 g) served as subjects, and all procedures used in these studies were conducted in accordance with the University of California, Davis, Institutional Animal Care and Use Committee the Animal Care and Use policies in strict compliance with the Guide for the Care and Use of Laboratory Animals of the National Research Council (National Academy Press, Washington, D.C.; on the internet at nap.edu/readingroom/books/labrats/).
(§3) Test Substances and Drug Administration. Allopregnanolone (3α-hydroxy-5α-pregnan-20-one; 5α,3α-P) was synthesized by a SAFC Pharma Inc, Madison, Wis., USA and Captisol (sulfobutylether-beta-cyclodextrin sodium salt) was provided by Ligand Pharmaceuticals, Inc. La Jolla, Calif., USA. Solutions of 5α,3α-P were made in 6% (0.5 and 1.5 mg/ml) or 24% ([…]) sulfobutylether-β-cyclodextrin sodium salt (Captisol®) in 0.9% saline. The volumes used for all injections were 10-20 ml/kg of body weight. In order to establish time courses for protection by 5α,3α-P in the 6-Hz electrical-stimulation (32 mA, 3 s) model, 5α,3α-P (0.5-6 mg/kg) was administered intravenously (i.v.), intramuscularly (i.m.), subcutaneously (s.c.) or orally (p.o.) before electrical stimulation. In the PTZ seizure test, 5α,3α-P or vehicle were administered i.v. or i.m. 1, 2 or 30 min before PTZ.
6-Hz Seizure Test (Kaminski, et al., Epilepsia (2004) 45:1-4): 3-s corneal stimulation (200-μs duration, 32-mA monopolar rectangular pulses at 6 Hz) was delivered by a constant-current device (ECT Unit 5780; Ugo Basile, Comerio, Italy). […] The experimental end point was protection against the seizure: an animal was considered to be protected if it resumed its normal exploratory behavior within 10 s of stimulation.

[3] = test system: PTZ (80 mg/kg, i.p.) seizures; assay: Pentylenetetrazol (PTZ) seizure test; assay type: in vivo, mouse; conditions: mice
Experimental: as §1, §2, §3
The time of onset of myoclonic jerks, clonus and tonic extension was recorded.
Data Analysis. Results are expressed as mean±S.E.M.; the significance of the difference in the responses of treatment groups with respect to control is based on one-way analysis of variance (ANOVA) followed by specific post hoc comparisons using Dunnett's test. Differences were considered statistically significant when the probability of error was less than 0.05 (p<0.05).

[4] = i.v. bolus, 0.5 and 1.0 mg/kg pooled
[5] = 0.5 mg/kg i.v. 1 min before PTZ

CC(=O)[C@H]1CC[C@H]2[C@@H]3CC[C@H]4C[C@H](O)CC[C@]4(C)[C@H]3CC[C@]12C [5α,3α-P, 3α-hydroxy-5α-pregnan-20-one]
mean peak plasma level (2 min) ([1]; i.v. bolus 0.5 mg/kg): 337 ng/mL | mean peak plasma level (2 min) ([1]; i.v. bolus 1.0 mg/kg): 746 ng/mL | pooled mean halftime, first component [1, 4]: 2 min | pooled mean halftime, second component [1, 4]: 22 min | duration of protective activity in the 6 Hz test ([2]; i.m. 3 mg/kg): < 2 h | onset of protective activity in the 6 Hz test ([2]; i.m. 3 mg/kg): ≤ 2 min | protective activity in the 6 Hz test at 30 min ([2]; i.v. 1.5 mg/kg, 30 min after infusion): inactive | time after injection with protective activity in the 6 Hz test ([2]; i.v. infusion 1.5 mg/kg): 1 to 15 min | bioavailability after oral administration ([2]; p.o. in the 6-Hz model, inferred from time course): Low bioavailability | delay of seizure onset in the PTZ model ([3]; 0.1 mg/kg i.v., all pretreatment times (1, 2 and 30 min)): failed to significantly delay seizure onset | animals protected from tonic seizures ([3]; 0.25 mg/kg i.m. 2 min before PTZ): 0% | animals protected from tonic seizures ([3]; 0.5 mg/kg i.m. 2 min before PTZ): 50% | animals in which tonic seizures and mortality were prevented [3, 5]: 62.5% | delay for myoclonic jerks and clonic seizures [3, 5]: marked delay | animals in which tonic seizures were prevented ([3]; 0.5 mg/kg i.v. 2 min before PTZ): 25% | animals protected from tonic seizures ([3]; 1.5 mg/kg i.m. 2 min before PTZ): 100% | protection against tonic seizures ([3]; 1.5 mg/kg i.m. 30 min before PTZ): significant protection | prevention of tonic seizures and mortality ([3]; 1.5 mg/kg i.v. 1 and 2 min before PTZ): completely prevented | protection against tonic seizures ([3]; 1.5 mg/kg i.v. 30 min before PTZ): inactive
